Source: paper PMC10266789 (The Journal of Clinical Investigation, 2023)

Key:
recombinant human SIRT2 = molecular target: T1, recombinant human SIRT2 (Homo sapiens, UniProt Q8IXJ6); assay: SIRT2 thermal stability (thermal shift) assay; format: binding
T1 sequence (Q8IXJ6 39-352 limits assumed): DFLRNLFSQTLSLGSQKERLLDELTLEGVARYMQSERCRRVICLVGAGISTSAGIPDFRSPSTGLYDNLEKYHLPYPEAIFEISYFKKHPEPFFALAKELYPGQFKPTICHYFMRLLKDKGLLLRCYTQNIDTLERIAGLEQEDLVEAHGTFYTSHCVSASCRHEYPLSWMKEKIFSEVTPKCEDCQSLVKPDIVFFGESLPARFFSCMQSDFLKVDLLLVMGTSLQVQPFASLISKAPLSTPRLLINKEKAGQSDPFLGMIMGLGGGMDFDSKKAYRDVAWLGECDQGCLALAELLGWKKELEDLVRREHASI
Method: SIRT2 underwent thermal denaturation with a midpoint transition temperature (Tm) of approximately 48°C.
Thermal melt data were collected using custom instrumentation (Fluorescence Innovations), with either 405 nm or 532 nm laser excitation and fluorescence lifetime emission to measure total well fluorescence and fluorescence lifetime as a function of temperature. Data were treated as previously described ([37]) to determine the midpoint transition temperature, Tm.

[1] = system: SARS-CoV-2 (strain USA-WA1/2020); conditions: SARS-CoV-2/human Calu3
[2] = system: acetylated α-tubulin in HepG2 cells; assay: Western blot of acetylated α-tubulin in HepG2 cells; format: cell-based, human; conditions: 24 hours, plus 1 µM trichostatin A
Method: Supplemental Figure 1. […] (A) HepG2 cells were treated with FLS- […]
determined by western blot. Total a-tubulin was monitored as a control. (B) MDA-MB-231 cells or (C) MRC-5 fibroblasts were treated with drug for 72h and c-Myc was monitored by western blot with b-actin as a control. Western blots are representative of three independent experiments.
(1 picture or pasted object on this page, not shown here)

[3] = Mouse pharmacokinetics, plasma; format: in vivo; conditions: single 50 mg/kg p.o., female BALB/c mice
Method: The pharmacokinetics study used fed female BALB/c mice (22 g, n = 3 per time point). Blood samples (~30 μL via saphenous vein puncture) were taken at 0.25, 0.5, 1, 2, 4, 8, and 24 hours. […] The lower limit of quantification was 10 ng/mL. An aliquot of 10 μL plasma sample was mixed with 10 μL terfenadine solvent plus 2 μL methanol. An additional 200 μL of terfenadine solvent was added, and the resulting mixture was vortexed for 1 minute and centrifuged at 1,500g for 15 minutes. The supernatant was diluted 10× with methanol/water (1:1 vol/vol with 0.1% formic acid), and 2 μL aliquots were analyzed using a QTRAP 4000 LC-MS/MS System (Sciex) with a C18 column (Kinetex). Pharmacokinetic parameters were determined with the noncompartmental analysis tool in WinNonlin (Certara).
Plasma samples from groups
Mean +/- SD is presented.

[4] = system: Betacoronavirus 1 (strain OC43); conditions: HCoV-OC43/human MRC-5
[5] = Host cell cytotoxicity, HFF; conditions: human, HFF cells
HCMV DNA = assay: Intracellular HCMV DNA accumulation by qPCR in MRC-5; format: cell-based, human cytomegalovirus; conditions: 72 hours
[6] = Host cell cytotoxicity, PHH; conditions: human
[7] = system: Zika virus (strain DAK41525); conditions: Zika/human HFF
[8] = system: HCMV TB40/E-mCherry-UL99eGFP; assay: HCMV virus yield at 72 hpi by TCID50 (3 IU/cell); format: cell-based, human cytomegalovirus; conditions: Figure 8C
HCMV TB40/E = assay: Human lung-only mouse model of HCMV infection; format: in vivo, lung-only mice (NSG); conditions: day 17; TCID50; FLS-359 50 mg/kg p.o. b.i.d.; ganciclovir 100 mg/kg i.p. daily; P < 0.04
[9] = system: HCMV TB40/E-mCherry-UL99eGFP; assay: Infectivity of HCMV progeny particles (DNase I-resistant viral DNA vs TCID50); format: cell-based, human cytomegalovirus
[10] = Host cell cytotoxicity, Calu3; format: cell-based; conditions: Calu3 cells; human Calu3; SARS-CoV-2 assay

In the case of `Cc1cn(-c2ccc3c(c2)CN(c2ncc(Cc4ccc(-n5cccn5)cc4)s2)CC3)c(C)n1` [FLS-359, 7-(2,4-dimethyl-1H-imidazol-1-yl)-2-(5-{[4-(1H-pyrazol-1-yl)phenyl]methyl}-1,3-thiazol-2-yl)-1,2,3,4-tetrahydroisoquinoline], the “increase of SIRT2 Tm” value (recombinant human SIRT2; 6.25 μM) is reported as 1.4 °C, the “increase of SIRT2 Tm” value (recombinant human SIRT2; 12.5 μM) is reported as 2.0 °C and the “SI CC50/IC50” value [1] is reported as 52.7. For the same molecule, the “increase of acetylated α-tubulin level” value [2] was “about 3 factor”, the half-life ([3]; female, BALB/c, mouse, in vivo, po, 50 mg/kg, read-out: plasma half-life (T1/2) (converted)) was 5.8 ± 1.4 h and the Cmax ([3]; female, BALB/c, mouse, plasma, po, 50 mg/kg) was 89.3 ± 11 µM. It also gave an AUC(0-inf) ([3]; mouse, plasma, po) of 713 µM·h, a Tmax ([3]; mouse, plasma, po) of 2 h and a Cmax ([3]; plasma, 50 mg/kg) of 89 µM. The “SI CC50/IC50” value [4] was over 30.1, the CC50 [5] was 41.6 µM and the “intracellular viral DNA accumulation” value (HCMV DNA; 3 IU/cell) was “compromised”. For the same molecule, the “reduction in intracellular viral DNA levels” value (HCMV DNA; Figure 8B) was “approximately 3 fold”, the CC50 [6] was over 10 µM and the “SI CC50/IC50” value [7] was 104.0. The “production of infectious virus” value ([8]; 72 hpi, TCID50) was “reduced the production of infectious virus to below the limit of quantification”, the “reduction in infectious virus” value ([8]; 72 hours) was “more than 1,000 fold” and the “production of infectious HCMV progeny in human lung implants” value (HCMV TB40/E) was “significantly reduced the production of infectious HCMV progeny”. The “reduction of particle/infectious unit ratio (infectivity)” value ([9]; 1.0 μM, 2 hpi to 96 hpi, 1 IU/cell) was 14.5 factor, the reduced infectivity ([9]; 2.5 or 5.0 μM, 2 hpi to 96 hpi) was “more than 1,690 fold” and the “reduction in extracellular virus particles” value ([9]; Figure 8E) was “approximately 70 fold”. The “reduction of viral infectivity” value ([9]; Figure 8E, discussion) was “more than 1,600 fold” and the CC50 [10] was 15.8 µM.
